Data from US9521850B2 (University of Florida Research Foundation, Incorporated, priority 2012, dated 2016).
Converted amounts (≈) assume the structure as drawn.

Legend:
Assay in all cases: microbe, parasite or virus in culture
[1] = test system: Liberibacter crescens; type: cell-based
[2] = test system: Rhizobium etli; type: cell-based
[3] = test system: Bradyrhizobium japonicum; type: cell-based
[4] = test system: Agrobacterium tumefaciens; type: cell-based
[5] = test system: Xanthomonas citri; type: cell-based, Xanthomonas citri subsp. citri
[6] = test system: Mesorhizobium loti; type: cell-based
[7] = test system: Sinorhizobium meliloti; type: cell-based

Row | SMILES | MBC ([1]; 24 h) [µg/mL] | MIC ([1]; 24 h) [µg/mL] | MBC ([1]; 120 h) [µg/mL] | MIC ([1]; 120 h) [µg/mL] | MBC ([2]; 24 hrs) [µg/mL] | MIC ([2]; 24 hrs) [µg/mL] | MBC ([2]; 120 hrs) [µg/mL] | MIC ([2]; 120 hrs) [µg/mL] | MBC ([3]; 24 hrs) [µg/mL] | MIC ([3]; 24 hrs) [µg/mL] | MBC ([3]; 120 hrs) [µg/mL] | MIC ([3]; 120 hrs) [µg/mL] | MBC [4] [µg/mL] | MIC [4] [µg/mL] | MBC [5] [µg/mL] | MIC [5] [µg/mL] | MBC [6] [µg/mL] | MIC [6] [µg/mL] | MBC [7] [µg/mL] | MIC [7] [µg/mL]
1 | CC(C)[C@H](NC(=O)c1c(F)cccc1F)C(=O)Nc1ccc(-n2cnnn2)cc1 [SA1, 2,6-Difluoro-N-[(2S)-3-methyl-1-oxo-1-{[4-(1H-tetrazol-1-yl)phenyl]amino}-2-butanyl] benzamide] | 16 (≈ 40 µM) | 16 (≈ 40 µM) | 32 (≈ 79.9 µM) | 32 (≈ 79.9 µM) | 32 (≈ 79.9 µM) | 16 (≈ 40 µM) | 64 (≈ 160 µM) | 32 (≈ 79.9 µM) | 16 (≈ 40 µM) | 16 (≈ 40 µM) | 32 (≈ 79.9 µM) | 32 (≈ 79.9 µM) | 64 (≈ 160 µM) | 32 (≈ 79.9 µM) | 128 (≈ 320 µM) | 64 (≈ 160 µM) | 32 (≈ 79.9 µM) | 16 (≈ 40 µM) | 32 (≈ 79.9 µM) | 16 (≈ 40 µM)
2 | Nc1c(C(=O)O)sc2nc(-c3ccccc3)cc(-c3ccc(F)cc3)c12 [SA2, 3-Amino-4-(4-fluorophenyl)-6-phenyl-thieno[2,3-b]pyridine-2-carboxylic acid] | 16 (≈ 43.9 µM) | 16 (≈ 43.9 µM) | 32 (≈ 87.8 µM) | 32 (≈ 87.8 µM) | 32 (≈ 87.8 µM) | 16 (≈ 43.9 µM) | 64 (≈ 176 µM) | 32 (≈ 87.8 µM) | 64 (≈ 176 µM) | 32 (≈ 87.8 µM) | 128 (≈ 351 µM) | 64 (≈ 176 µM) | 64 (≈ 176 µM) | 32 (≈ 87.8 µM) | 64 (≈ 176 µM) | 32 (≈ 87.8 µM) | 32 (≈ 87.8 µM) | 16 (≈ 43.9 µM) | 32 (≈ 87.8 µM) | 16 (≈ 43.9 µM)
3 | CC(C)[C@H](NC(=O)c1ccccc1)C(=O)Nc1cccc(-n2cnnn2)c1 [SA3, N-[(2S)-3-Methyl-1-oxo-1-{[3-(1H-tetrazol-1-yl)phenyl]amino}-2-butanyl] benzamide] | 16 (≈ 43.9 µM) | 8 (≈ 22 µM) | 32 (≈ 87.8 µM) | 16 (≈ 43.9 µM) | 32 (≈ 87.8 µM) | 32 (≈ 87.8 µM) | 64 (≈ 176 µM) | 64 (≈ 176 µM) | 32 (≈ 87.8 µM) | 16 (≈ 43.9 µM) | 64 (≈ 176 µM) | 32 (≈ 87.8 µM) | 64 (≈ 176 µM) | 32 (≈ 87.8 µM) | 128 (≈ 351 µM) | 64 (≈ 176 µM) | 32 (≈ 87.8 µM) | 16 (≈ 43.9 µM) | 64 (≈ 176 µM) | 32 (≈ 87.8 µM)
4 | O=C1CCCC2=C1[C@H](c1ccccc1)Nc1ccc(C(=O)c3ccccc3)cc1N2 [SA4, (11S)-7-Benzoyl-11-phenyl-2,3,4,5,10,11-hexahydro-1H-dibenzo[b,e] [1,4]diazepin-1-one] | 32 (≈ 81.1 µM) | 16 (≈ 40.6 µM) | 64 (≈ 162 µM) | 32 (≈ 81.1 µM) | 16 (≈ 40.6 µM) | 8 (≈ 20.3 µM) | 32 (≈ 81.1 µM) | 16 (≈ 40.6 µM) | 16 (≈ 40.6 µM) | 8 (≈ 20.3 µM) | 16 (≈ 40.6 µM) | 16 (≈ 40.6 µM) | 64 (≈ 162 µM) | 16 (≈ 40.6 µM) | 64 (≈ 162 µM) | 32 (≈ 81.1 µM) | 32 (≈ 81.1 µM) | 16 (≈ 40.6 µM) | 64 (≈ 162 µM) | 32 (≈ 81.1 µM)
5 | COc1ccc(C2Nc3ccc(C(=O)c4ccccc4)cc3NC3=C2C(=O)CC(c2ccccc2)C3)cc1 (centres unmarked) [SA5, 7-Benzoyl-11-(4-methoxy-phenyl)-3-phenyl-2,3,4,5,10,11-hexahydro-1H-dibenzo[b,e] [1,4]diazepin-1-one] | 16 (≈ 32 µM) | 8 (≈ 16 µM) | 32 (≈ 63.9 µM) | 16 (≈ 32 µM) | 16 (≈ 32 µM) | 16 (≈ 32 µM) | 32 (≈ 63.9 µM) | 32 (≈ 63.9 µM) | 16 (≈ 32 µM) | 16 (≈ 32 µM) | 32 (≈ 63.9 µM) | 32 (≈ 63.9 µM) | 64 (≈ 128 µM) | 32 (≈ 63.9 µM) | 128 (≈ 256 µM) | 64 (≈ 128 µM) | 32 (≈ 63.9 µM) | 16 (≈ 32 µM) | 64 (≈ 128 µM) | 32 (≈ 63.9 µM)
6 | O=C1CC(c2ccccc2)CC2=C1C(c1ccc(O)cc1)Nc1ccc(C(=O)c3ccccc3)cc1N2 (centres unmarked) [SA6, 7-Benzoyl-11-(4-hydroxy-phenyl)-3-phenyl-2,3,4,5,10,11-hexahydro-1H-dibenzo[b,e] [1,4]diazepin-1-one] | 16 (≈ 32.9 µM) | 16 (≈ 32.9 µM) | 64 (≈ 132 µM) | 32 (≈ 65.8 µM) | 32 (≈ 65.8 µM) | 32 (≈ 65.8 µM) | 64 (≈ 132 µM) | 64 (≈ 132 µM) | 32 (≈ 65.8 µM) | 16 (≈ 32.9 µM) | 32 (≈ 65.8 µM) | 32 (≈ 65.8 µM) | 64 (≈ 132 µM) | 16 (≈ 32.9 µM) | 128 (≈ 263 µM) | 64 (≈ 132 µM) | 32 (≈ 65.8 µM) | 16 (≈ 32.9 µM) | 32 (≈ 65.8 µM) | 32 (≈ 65.8 µM)
7 | CCOc1ccc(C2Nc3ccc(C(=O)c4ccccc4)cc3NC3=C2C(=O)CCC3)cc1 (centres unmarked) [SA7, 7-Benzoyl-11-(4-ethoxy-phenyl)-2,3,4,5,10,11-hexahydro-1H-dibenzo[b,e] [1,4]diazepin-1-one] | 16 (≈ 36.5 µM) | 16 (≈ 36.5 µM) | 32 (≈ 73 µM) | 32 (≈ 73 µM) | 16 (≈ 36.5 µM) | 16 (≈ 36.5 µM) | 32 (≈ 73 µM) | 32 (≈ 73 µM) | 32 (≈ 73 µM) | 32 (≈ 73 µM) | 32 (≈ 73 µM) | 32 (≈ 73 µM) | 64 (≈ 146 µM) | 16 (≈ 36.5 µM) | 64 (≈ 146 µM) | 32 (≈ 73 µM) | 32 (≈ 73 µM) | 16 (≈ 36.5 µM) | 32 (≈ 73 µM) | 16 (≈ 36.5 µM)
8 | O=C1CC(c2ccccc2)CC2=C1C(c1cccs1)Nc1ccc(C(=O)c3ccccc3)cc1N2 (centres unmarked) [SA8, 7-Benzoyl-3-phenyl-11-(2-thienyl)-2,3,4,5,10,11-hexahydro-1H-dibenzo[b,e] [1,4]diazepin-1-one] | 16 (≈ 33.6 µM) | 16 (≈ 33.6 µM) | 32 (≈ 67.1 µM) | 32 (≈ 67.1 µM) | 16 (≈ 33.6 µM) | 8 (≈ 16.8 µM) | 32 (≈ 67.1 µM) | 16 (≈ 33.6 µM) | 16 (≈ 33.6 µM) | 8 (≈ 16.8 µM) | 32 (≈ 67.1 µM) | 32 (≈ 67.1 µM) | 128 (≈ 269 µM) | 32 (≈ 67.1 µM) | 64 (≈ 134 µM) | 32 (≈ 67.1 µM) | 32 (≈ 67.1 µM) | 16 (≈ 33.6 µM) | 32 (≈ 67.1 µM) | 16 (≈ 33.6 µM)
9 | Cc1cc([C@H]2Nc3ccc(C(=O)c4ccccc4)cc3NC3=C2C(=O)CC(C)(C)C3)cc(C)c1O [SA9, 11-(4-hydroxy-3,5-dimethyl-phenyl)-3,3-dimethyl-7-(phenyl-carbonyl)-2,3,4,5,10,11-hexahydro-1H-dibenzo[b,e] [1,4]diazepin-1-one] | 16 (≈ 34.3 µM) | 16 (≈ 34.3 µM) | 64 (≈ 137 µM) | 32 (≈ 68.6 µM) | 16 (≈ 34.3 µM) | 8 (≈ 17.1 µM) | 32 (≈ 68.6 µM) | 16 (≈ 34.3 µM) | 32 (≈ 68.6 µM) | 16 (≈ 34.3 µM) | 64 (≈ 137 µM) | 32 (≈ 68.6 µM) | 64 (≈ 137 µM) | 32 (≈ 68.6 µM) | 64 (≈ 137 µM) | 32 (≈ 68.6 µM) | 32 (≈ 68.6 µM) | 16 (≈ 34.3 µM) | 32 (≈ 68.6 µM) | 16 (≈ 34.3 µM)
10 | COc1ccc(NC(=O)C2(N(C(=O)c3ccc(-n4cnnn4)cc3)c3ccc(OC)cc3)CCCCC2)cc1 [SSC8, N-(4-methoxy-phenyl)-N-{1-[(4-methoxy-phenyl)carbamoyl]cyclohexyl}-4-(1H-tetrazol-1-yl)benzamide] | 16 (≈ 30.4 µM) | 16 (≈ 30.4 µM) | 32 (≈ 60.8 µM) | 32 (≈ 60.8 µM) | 32 (≈ 60.8 µM) | 16 (≈ 30.4 µM) | 64 (≈ 122 µM) | 32 (≈ 60.8 µM) | 16 (≈ 30.4 µM) | 8 (≈ 15.2 µM) | 32 (≈ 60.8 µM) | 16 (≈ 30.4 µM) | 64 (≈ 122 µM) | 32 (≈ 60.8 µM) | 64 (≈ 122 µM) | 32 (≈ 60.8 µM) | 32 (≈ 60.8 µM) | 16 (≈ 30.4 µM) | 32 (≈ 60.8 µM) | 16 (≈ 30.4 µM)
